GI50 data for 16 compounds are collected here from ChEMBL document CHEMBL4130444, “1,4-Naphthoquinones as inhibitors of Itch, a HECT domain-E3 ligase, and tumor growth suppressors in multiple myeloma” (Eur J Med Chem, 2017).

For assay [1], the system named is HCT-116. Put plainly: Antiproliferative activity against human HCT116 cells incubated for 48 hrs by SRB assay. In kind it is functional. The note with it: HCT-116, 48 h. A general note: The SRB assay estimates cell density from bound dye.
Assay [2] deals with MDA-MB-231. Briefly: Antiproliferative activity against human MDA-MB-231 cells incubated for 48 hrs by SRB assay. The note with it: MDA-MB-231, 48 h. In kind it is functional.

Where only a bound is given, the exact number is not on record here.

The GI50 is the concentration at which growth is held to half of that of the control. A lower GI50 goes with more potent growth inhibition.

Consider `O=C(Nc1ccc2[nH]cnc2c1)c1ccc(CNC2=C(Cl)C(=O)c3ccccc3C2=O)cc1`, for which the GI50 in assay [1] and in assay [2] was over 10 µM throughout.

As to `O=C(Nc1nccs1)c1ccc(CNC2=C(Cl)C(=O)c3ccccc3C2=O)cc1`, the GI50 in assay [1] and in assay [2] was over 10 µM throughout.

As for `O=C(Nc1cccnc1)c1ccc(CNC2=C(Cl)C(=O)c3ccccc3C2=O)cc1`, the GI50 in assay [1] and in assay [2] was over 10 µM throughout.

Take `O=C(Nc1cnc2ccccc2c1)c1ccc(CNC2=C(Cl)C(=O)c3ccccc3C2=O)cc1`: the GI50 in assay [1] and in assay [2] was over 10 µM each time.

On to `O=C(Nc1ccccc1)c1ccc(CNC2=C(Cl)C(=O)c3ccccc3C2=O)cc1`, for which the GI50 in assay [1] and in assay [2] was over 10 µM each time.

For the compound `O=C(Nc1cccc2ncccc12)c1ccc(CNC2=C(Cl)C(=O)c3ccccc3C2=O)cc1`, the GI50 in assay [1] and in assay [2] was over 10 µM in each case.

Regarding `Nc1ccn(C(=O)c2ccc(CNC3=C(Cl)C(=O)c4ccccc4C3=O)cc2)n1`, the GI50 in assay [1] and in assay [2] was over 10 µM each time.

In the case of `O=C(Nc1ccc2cn[nH]c2c1)c1ccc(CNC2=C(Cl)C(=O)c3ccccc3C2=O)cc1`, the GI50 in assay [1] and in assay [2] was over 10 µM throughout.

As for `O=C(Nc1ccc2[nH]ccc2c1)c1ccc(CNC2=C(Cl)C(=O)c3ccccc3C2=O)cc1`, the GI50 in assay [1] and in assay [2] was over 10 µM in each case.

For the compound `O=C(Nc1ccc(F)cc1)c1ccc(CNC2=C(Cl)C(=O)c3ccccc3C2=O)cc1`, the GI50 in assay [1] and in assay [2] was over 10 µM in each case.

As for `O=C(Nc1cnccn1)c1ccc(CNC2=C(Cl)C(=O)c3ccccc3C2=O)cc1`, the GI50 came to 5.5 µM in assay [1] and 9.2 µM in assay [2].

As for `O=C(Nc1ccc2[nH]ncc2c1)c1ccc(CNC2=C(Cl)C(=O)c3ccccc3C2=O)cc1`, the GI50 in assay [1] and in assay [2] was over 10 µM each time.

Regarding `O=C(Nc1nc2ccccc2[nH]1)c1ccc(CNC2=C(Cl)C(=O)c3ccccc3C2=O)cc1`, the GI50 in assay [1] was over 10 µM; in assay [2], 8.9 µM.

As for `O=C(Nc1ccc2ncccc2c1)c1ccc(CNC2=C(Cl)C(=O)c3ccccc3C2=O)cc1`, the GI50 was 6.8 µM in assay [1] and over 10 µM in assay [2].

As for `O=C(Nc1cccc2[nH]ccc12)c1ccc(CNC2=C(Cl)C(=O)c3ccccc3C2=O)cc1`, the GI50 in assay [1] and in assay [2] was over 10 µM in each case.

With `O=C(Nc1ccccn1)c1ccc(CNC2=C(Cl)C(=O)c3ccccc3C2=O)cc1`, the GI50 in assay [1] and in assay [2] was over 10 µM in each case.
